# Test results reported in patent publication US20060111378A1, “Substituted 2-anilinopyrimidines as cell-cycle-kinase or receptor-tyrosine-kinase inhibitors, their production and use as pharmaceutical agents” (priority 2004, published 2006).
# What was measured:
# MaTu-ADR = test: Proliferation assay MaTu-ADR; format: cell-based; conditions: Homo sapiens, 96 h; MaTu-ADR cells, 4 days, crystal violet
# Text: (§1) Cultivated human tumor cells (MCF7, hormone-independent human breast cancer cells, related to ATCC HTB22; NCI-H460, human non-small-cell lung cancer cells, ATCC HTB-177, DU 145, hormone-independent human prostate cancer cells, ATCC HTB-81; MaTu-MDR, hormone-independent, multiple pharmaceutical agent-resistant human breast cancer cells, EPO-GmbH, Berlin) were flattened out at a density of about 3000-5000 cells/measuring point, depending on the growth rate of the respective cells, in a 96-well multititer plate in 200 μl of the corresponding growth medium. After 24 hours, the cells of one plate (zero-point plate) were colored with crystal violet (see below), while the medium of the other plates was replaced by fresh culture medium (200 μl), to which the test substances were added in various concentrations (0 μm, as well as in the range of 0.01-30 μm; the final concentration of the solvent dimethyl sulfoxide was 0.5%). The cells were incubated for 4 days in the presence of test substances. The cell proliferation was determined by coloring the cells with crystal violet: the cells were fixed by adding 20 μl/measuring point of an 11% glutaric aldehyde solution for 15 minutes at room temperature. After three washing cycles of the fixed cells with water, the plates were dried at room temperature. The cells were colored by adding 100 μl/measuring point of a 0.1% crystal violet solution (the pH was set at 3 by adding acetic acid). After three washing cycles of the colored cells with water, the plates were dried at room temperature. The dye was dissolved by adding 100 μl/measuring point of a 10% acetic acid solution. The extinction was determined by photometry at a wavelength of 595 nm. The change of cell growth, in percent, was calculated by normalization of the measured values to the extinction values of the zero-point plate (=0%) and the extinction of the untreated (0 μm) cells (=100%).
# [1] = test system: NCI-H460, human non-small-cell lung cancer cells; test: Proliferation assay H460; format: cell-based; conditions: NCI-H460, 96 h, 4 days, crystal violet
# Text: as §1
# Human Carboanhydrase-2 = Human Carboanhydrase-2 (Homo sapiens, UniProt P00918); test: Carboanhydrase assay; format: biochemical; conditions: 4-nitrophenyl acetate hydrolysis, 60 minutes; read-out: Inhibition of Human Carboanhydrase-2 IC50
# Procedure: 2 μl of the test compounds, dissolved in DMSO (100× the final concentration), in a concentration range of 0.03-10 μm (final), was pipetted as 4× determinations into the holes of a 96-hole microtiter plate. Holes that contained the solvent without test compounds were used as reference values (1. Holes without carboanhydrase for correction of the non-enzymatic hydrolysis of the substrate, and 2. Holes with carboanhydrase for determining the activity of the non-inhibited enzyme).
# 188 μl of assay buffer (10 mmol of Tris/HCl, pH 7.4, 80 mmol of NaCl), with or without 3 units/hole on carboanhydrase I or II, was pipetted into the holes of the microtiter plate.
# CDK1/CycB = molecular target: T1, CDK1/CycB (Homo sapiens, UniProt P06493); test: CDK1/CycB kinase assay; format: biochemical; conditions: histone IIIS substrate, 0.5 μm ATP
# T1 construct: GST; purchased ProQinase GmbH, Freiburg; host or cells: baculovirus-infected insect cells (Sf9)
# Procedure: Recombinant CDK1- and CycB-GST-fusion proteins, purified from baculovirus-infected insect cells (Sf9), were purchased from ProQinase GmbH, Freiburg. Histone IIIS, used as a kinase substrate, is available commercially from the Sigma Company.
# (§2) CDK1/CycB (200 ng/measuring point) was incubated for 10 minutes at 22° C. in the presence of various concentrations of test substances (0 μm, as well as within the range of 0.01-100 μm) in assay buffer [50 mmol of tris/HCl, pH 8.0, 10 mmol of MgCl2, 0.1 mmol of Na ortho-vanadate, 1.0 mmol of dithiothreitol, 0.5 μm of adenosine triphosphate (ATP), 10 μg/measuring point of histone IIIS, 0.2 μCi/measuring point of 33P-gamma ATP, 0.05% NP40, 1.25% dimethyl sulfoxide]. The reaction was stopped by adding EDTA solution (250 mmol, pH 8.0, 15 μl/measuring point).
# (§3) From each reaction batch, 15 μl was applied to P30 filter strips (Wallac Company), and non-incorporated 33P-ATP was removed by subjecting the filter strips to three washing cycles for 10 minutes each in 0.5% phosphoric acid. After the filter strips were dried for one hour at 70° C., the filter strips were covered with scintillator strips (MeltiLex™ A, Wallac Company) and baked for one hour at 90° C. The amount of incorporated 33P (substrate phosphorylation) was determined by scintillation measurement in a gamma-radiation measuring device (Wallac).
# CDK2/CycE = molecular target: T2, CDK2/CycE (Homo sapiens, UniProt P24941); test: CDK2/CycE kinase assay; format: biochemical; conditions: histone IIIS substrate, 0.5 μm ATP
# T2 construct: GST; purchased ProQinase GmbH, Freiburg; host or cells: baculovirus-infected insect cells (Sf9)
# Procedure: Recombinant CDK2- and CycE-GST-fusion proteins, purified from baculovirus-infected insect cells (Sf9), were purchased by ProQinase GmbH, Freiburg. Histone IIIs, which was used as a kinase substrate, was purchased by the Sigma Company.
# as §2, with “CDK2/CycE (50” for “CDK1/CycB (200”, “^33P-gamma” for “33P-gamma”, “12.5%” for “1.25%”
# as §3, with “^33P-ATP” for “33P-ATP”, “^33P” for “33P”
# [2] = test system: MCF7, hormone-independent human breast cancer cells; test: Proliferation assay MCF7; format: cell-based; conditions: 96 h, 4 days, crystal violet
# Text: as §1
# [3] = test system: DU 145, hormone-independent human prostate cancer cells; test: Proliferation assay DU145; format: cell-based; conditions: DU-145, 96 h, 4 days, crystal violet
# Text: as §1
# [4] = molecular target: T3, VEGF receptor tyrosine kinase-2 (Homo sapiens, UniProt P35968); test: VEGF receptor-2 kinase assay; format: biochemical; conditions: poly-(Glu4Tyr) substrate, 8 μmol ATP; read-out: VEGF-R2 IC50
# T3 construct: GST; made in house; host or cells: baculovirus-infected insect cells (Sf9)
# Procedure: VEGF Receptor-2 Kinase Assay
# Recombinant VEGF receptor tyrosine kinase-2 was purified as a GST fusion protein from baculovirus-infected insect cells (Sf9). Poly-(Glu4Tyr), which was used as a kinase substrate, was purchased by the Sigma Company. VEGF receptor tyrosine kinase (90 ng/measuring point) was incubated for 10 minutes at 22° C. in the presence of various concentrations of test substances (0 μm, as well as within the range of 0.001-30 μm) in 30 μl of assay buffer [40 mmol of Tris/HCl, pH 5.5, 10 mmol of MgCl2, 1 mmol of MnCl2, 3 μmol of Na ortho-vanadate, 1.0 mmol of dithiothreitol, 8 μmol of adenosine trisphosphate (ATP), 0.96 μg/measuring point of poly-(Glu4Tyr), 0.2 μCi/measuring point of 33P-gamma ATP, 1.4% dimethyl sulfoxide]. The reaction was stopped by adding EDTA solution (250 mmol, pH 8.0, 15 μl/measuring point).
# as §3
# T1 sequence (P06493 whole entry): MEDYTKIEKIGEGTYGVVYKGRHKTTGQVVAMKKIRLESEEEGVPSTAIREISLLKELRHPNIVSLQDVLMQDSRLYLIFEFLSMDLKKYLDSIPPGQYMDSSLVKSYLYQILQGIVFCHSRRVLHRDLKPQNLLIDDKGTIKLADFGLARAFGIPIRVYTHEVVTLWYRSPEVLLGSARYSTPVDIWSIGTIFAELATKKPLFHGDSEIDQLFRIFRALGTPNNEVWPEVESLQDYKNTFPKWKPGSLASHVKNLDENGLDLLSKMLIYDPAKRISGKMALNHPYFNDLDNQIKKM
# T1 sequence (P14635 whole entry partner): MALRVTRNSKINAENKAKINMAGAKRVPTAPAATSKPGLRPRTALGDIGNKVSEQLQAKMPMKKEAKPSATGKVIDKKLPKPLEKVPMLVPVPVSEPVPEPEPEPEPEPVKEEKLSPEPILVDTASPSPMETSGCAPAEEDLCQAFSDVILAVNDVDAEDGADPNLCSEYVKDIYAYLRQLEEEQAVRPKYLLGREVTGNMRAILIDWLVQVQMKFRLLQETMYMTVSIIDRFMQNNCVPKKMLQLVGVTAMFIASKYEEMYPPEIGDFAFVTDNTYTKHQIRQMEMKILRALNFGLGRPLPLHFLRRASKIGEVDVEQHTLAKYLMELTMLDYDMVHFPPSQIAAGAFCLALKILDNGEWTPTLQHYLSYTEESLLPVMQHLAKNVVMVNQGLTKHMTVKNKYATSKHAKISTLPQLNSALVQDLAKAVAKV
# T3 sequence (P35968 20-1356): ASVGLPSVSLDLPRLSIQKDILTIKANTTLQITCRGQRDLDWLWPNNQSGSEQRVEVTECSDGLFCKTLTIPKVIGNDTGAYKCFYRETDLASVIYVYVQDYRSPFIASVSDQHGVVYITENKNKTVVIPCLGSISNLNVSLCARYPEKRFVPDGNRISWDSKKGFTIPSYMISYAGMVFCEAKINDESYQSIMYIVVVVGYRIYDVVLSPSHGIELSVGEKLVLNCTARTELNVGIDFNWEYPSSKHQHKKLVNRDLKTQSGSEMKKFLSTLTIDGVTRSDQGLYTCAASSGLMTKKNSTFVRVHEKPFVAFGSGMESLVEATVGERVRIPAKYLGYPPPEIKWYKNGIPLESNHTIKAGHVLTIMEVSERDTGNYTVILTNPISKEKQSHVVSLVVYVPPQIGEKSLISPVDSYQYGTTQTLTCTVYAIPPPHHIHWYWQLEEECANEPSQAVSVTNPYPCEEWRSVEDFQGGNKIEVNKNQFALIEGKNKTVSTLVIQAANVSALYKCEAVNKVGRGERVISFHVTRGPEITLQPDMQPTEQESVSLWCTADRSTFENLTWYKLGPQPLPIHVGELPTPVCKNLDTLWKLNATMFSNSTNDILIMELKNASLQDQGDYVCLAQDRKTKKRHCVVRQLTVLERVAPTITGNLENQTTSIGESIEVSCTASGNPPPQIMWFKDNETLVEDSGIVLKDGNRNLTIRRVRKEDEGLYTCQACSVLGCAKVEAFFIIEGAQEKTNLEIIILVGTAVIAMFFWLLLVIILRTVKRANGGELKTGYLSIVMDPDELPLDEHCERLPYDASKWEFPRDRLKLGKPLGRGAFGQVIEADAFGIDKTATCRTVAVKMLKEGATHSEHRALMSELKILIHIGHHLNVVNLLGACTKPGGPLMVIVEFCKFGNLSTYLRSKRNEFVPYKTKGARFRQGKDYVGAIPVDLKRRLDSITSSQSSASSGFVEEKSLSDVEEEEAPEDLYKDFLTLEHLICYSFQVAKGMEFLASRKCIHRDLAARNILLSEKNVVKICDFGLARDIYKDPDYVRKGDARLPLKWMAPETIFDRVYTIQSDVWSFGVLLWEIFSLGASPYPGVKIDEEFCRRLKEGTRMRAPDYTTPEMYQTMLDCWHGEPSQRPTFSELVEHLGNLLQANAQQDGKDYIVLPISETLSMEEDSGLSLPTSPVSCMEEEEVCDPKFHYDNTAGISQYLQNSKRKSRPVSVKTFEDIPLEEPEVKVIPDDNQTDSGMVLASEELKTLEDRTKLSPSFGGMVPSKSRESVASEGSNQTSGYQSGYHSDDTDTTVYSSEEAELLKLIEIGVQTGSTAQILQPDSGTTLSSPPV
Structure (SMILES),IC50 (MaTu-ADR),IC50 [1],IC50 (Human Carboanhydrase-2),IC50 (CDK1/CycB),IC50 (CDK2/CycE),IC50 [2],IC50 [3],IC50 [4]
"Cc1cc(Nc2ncc(Br)c(N[C@H](C)CO)n2)cc(C)c1S(N)(=O)=O [Example 1, 4-[5-Bromo-4-((R)-2-hydroxy-1-methyl-ethylamino)-pyrimidin-2-ylamino]-2,6-dimethyl-benzenesulfonamide]",400 nM,300 nM,> 10000 nM,15 nM,14 nM,600 nM,400 nM,18 nM
Cc1cc(Nc2ncc(Br)c(N[C@H](C)[C@@H](C)O)n2)cc(C)c1S(N)(=O)=O [Example 3],40 nM,50 nM,> 10000 nM,5 nM,6 nM,< 100 nM,70 nM,19 nM
"Cc1cc(Nc2ncc(Br)c(O[C@H](C)[C@@H](C)O)n2)cc(C)c1S(N)(=O)=O [Example 6, 4-[5-Bromo-4-((1R,2R)-2-hydroxy-1-methyl-propoxy)-pyrimidin-2-ylamino]-2,6-dimethyl-benzenesulfonamide]",20 nM,50 nM,> 10000 nM,8 nM,8 nM,50 nM,50 nM,39 nM
Cc1cc(Nc2ncc(Br)c(N[C@H](C)[C@@H](C)O)n2)cc(Cl)c1S(N)(=O)=O [Example 4],< 100 nM,< 100 nM,,5 nM,10 nM,120 nM,100 nM,130 nM
"C[C@@H](O)[C@@H](C)Nc1nc(Nc2ccc(S(N)(=O)=O)cc2)ncc1Br [Example 275 from WO 02/096888, 4-[5-Bromo-4-((1R,2R)-2-hydroxy-1-methyl-propylamino)-pyrimidin-2-ylamino]-benzenesulfonamide, reference compound]",20 nM,40 nM,810 nM,< 10 nM,< 10 nM,50 nM,70 nM,130 nM
Cc1cc(Nc2ncc(Br)c(O[C@H](C)[C@@H](C)O)n2)cc(Br)c1S(N)(=O)=O [Example 7],50 nM,160 nM,6000 nM,12 nM,15 nM,120 nM,160 nM,56 nM
"C[C@@H](Nc1nc(Nc2ccc(S(N)(=O)=O)cc2)ncc1Br)C(C)(C)O [Example 271 from WO 02/096888, 4-[5-Bromo-4-((R)-2-hydroxy-1,2-dimethyl-propylamino)-pyrimidin-2-ylamino]-benzenesulfonamide, reference compound]",< 100 nM,200 nM,530 nM,< 10 nM,< 10 nM,180 nM,150 nM,250 nM
Cc1cc(Nc2ncc(Br)c(N[C@H](C)C(C)(C)O)n2)cc(C)c1S(N)(=O)=O [Example 2],70 nM,130 nM,> 10000 nM,3 nM,2 nM,< 100 nM,90 nM,20 nM
